Measured values taken from patent publication US6844321B2, “Crystallization of a GLP-1 analogue” (Novo Nordisk A/S, priority 2000, dated 2005).

Experiment: isoelectric point (pI) of the GLP-1 analogue
Type: physicochemical
Conditions: isoelectric point of the peptide, stated in the description

Arg^34GLP-1(7-37)
pI: about 5.4
